Laboratory results from patent US7112318B2, “Non-invasive diagnostic imaging technology for mitochondria dysfunction using radiolabeled lipophilic salts” (The Johns Hopkins University, priority 2002, dated 2006).

What was measured:
myocardium [1] = assay: F-18-FBnTP uptake kinetics in the myocardium (dog PET); type: in vivo, Mongrel dogs
Description: Methods: Mongrel dogs (BW=35 kg) were injected with 3–4 mCi of F-18-FBnTP. Images were acquired on a GE 4096+ scanner (15 slices, 6.5 mm slice thickness). PET scans of increasing duration (15 sec to 20 min) were acquired over a total time of 85 min post-injection. Arterial blood samples (0.5 ml in volume) were collected every few seconds for the first 3 minutes and at gradually increasing intervals (1 to 10 min) for the remaining time of the imaging study. The vascular and myocardial kinetics of F-18-FBnTP was analyzed using the ROI method.

myocardium [2] = assay: F-18-FBnTP myocardial accumulation in heart failure (pacing 210 bpm, 4 weeks, PET); type: in vivo, Mongrel dog
Description: Pacing of the mongrel dog heart at high rate (210 bpm) for a four weeks is a well-established model of heart failure. The advantage of this model is that the cardiomayopathy solely involve apoptosis without stenosis of coronary artery or related ischemia. Therefore, in this model the affect of apoptosis on FBnTP uptake can be dissected.
Methods: Preparation of dog and data acquisition was performed as described above. Mongrel dog was installed with a pacemaker in the rib case and underwent FBnTP PET scan (presented above). Following the baseline scan, the dog_s heart was paced at a rate of 210 bpm for 4 weeks and a second scan was acquired.
Quantitation of FBnTP in the myocardium was performed using region of interest placed on co-registered myocardial images, whose activity was normalized to the injected dose, before and after pacing. An example for ROI placement is illustrated in FIG. 18.

[3] = Stability of fluorination: total bone uptake after i.v. injection; type: in vivo; conditions: mice, 5 and 30 min p.i., compared to mice injected with F-18 only
Description: Methods: Mice were injected via the tail vein with 25 μCi of F-18-PhC; 5 and 30 min p.i., the left or right femur bone was removed, and bone radioactivity together with standard (1:100 of injected dose) were counted in a gamma counter. A parallel group of mice was injected with free fluorides (F-18). Three mice of each group were studied at each time point. Radioactivity is represented as percentage of injected dosed (% ID) and total bone uptake was calculated as activity in femur bone×20.

[4] = tested on: Human lung carcinoma H549 cells; assay: Mitochondria membrane potential (MMP)-dependent cellular uptake with CCCP; type: cell-based; conditions: 30 min
Description: The extent of MMP-dependent cellular uptake of F-18-FBnTP was assessed using CCCP, a known protonophore that selectively abolishes the MMP.
Methods: Human lung carcinoma H549 cells ([…]) were incubated with 0.1 μCi/ml F-18-FBnTP for 30 min. Samples of the suspension (1 mL) were transferred to Eppendorf s vials and placed in a 370C bath. Varying concentrations (30, 60, 90, 120 μM) of CCCP were added to the suspension. After 30 min of incubation with CCCP, the Eppendorf vials were centrifuged for 1 min, and activity in pellet and supernatant was immediately counted.

[5] = Stability in plasma after injection of the agent into mice (column-switch HPLC radiochromatography); type: in vivo
Description: Samples of mouse plasma were obtained from heparinized whole bloodcollected 5, 15 and 30 min p.i. of the tracer. To eliminate binding to plasma proteins, the plasma was added to solid urea to give a final concentration of 8M urea. The plasma-urea was loaded into a column switch HPLC system (Hilton 2000), in which the plasma passes through a small capture column (Oasis Sorbent, Waters Corp.), which retains lipophilic solutes, while polar species fail to bind and are detected as they pass through a positron detector. After four minutes, the capture column is free of plasma proteins and polar species. Then, the contents of the capture column was swept onto an analytical column (Prodigy ODS-3, Phenomenex) by 40% acetonitrile, 60% triethylamine acetate buffer pH 4.1 at 1 mL/min, where separation of the parent compound and lipophilic metabolites occurs. The effluent from the analytical column also passes through the positron flow detector. The proportion of each species is determined from the area under each chromatographic peak. Results: Radiochemical purity of the 18F-labeled FBnTP was more than 95%. […] FIG. 1 depicts the chromatogram of plasma collected 30 min p.i., and the parental compound incubated for a similar time period (30 min) in buffered saline. Plasma activity and parental compound peaked at same time (˜6 min).

FCA-induced inflammation = assay: Accumulation in FCA-induced inflammation tissue and healthy muscle; type: in vivo; conditions: rats, 3 days after administration of FCA
Description: (§1) 0.1 ml of nitrosomethyl urea (NUM) was introduced i.p in female rats (150 g). When tumor reached an approximate size of 1 to 1.5 cm, FCA was injected (0.15 ml) to the hind limb footpad. Uptake assays were carried out 3 days thereafter. F-18-FBnTP (0.25 mCi) was injected via tail vein. Sixty minutes later tumor, inflamed tissue and healthy muscle tissue of the opposite limb (control) were collected on ice, weighed and counted in a gamma counter together with standards.
The accumulation of the novel F-18-phosphonium cations, F-18-FBnTP and F-18-fluoropropyl triphenyl phosphonium (F-18-FPTP) in comparison with F-18-FDG in FCA-induced inflammation and healthy tissue is presented in Table 2. Induction of inflammation and activity counting were carried out as described above.

[6] = tested on: human lung carcinoma A549 cells; assay: Detection of response of lung carcinoma tumor to taxeter in vivo; conditions: A549 tumor in nude mice, 48 hours after i.v. taxeter, 60 min after tracer, normalized to muscle
Description: Methods: 2×10^6 human lung carcinoma A549 cells were inoculated s.q. in 12 nude mice. When tumor size reached an approximate size of 5—10 mm, six mice were injected i.v. with taxeter and six mice served as control. Uptake assays were carried out 48 hours thereafter. 25 μCi of F-18-FBnTP were injected i.v., and tumor and muscle tissue was dissected after 60 min.

[7] = tested on: orthotopic NMU mammary tumor; assay: Tracer uptake in NMU mammary tumor versus healthy gland and FCA inflammation; type: in vivo; conditions: NMU-bearing rats, 60 min after i.v., normalized to muscle
Source text: The carcinogen nitrosomethyl urea (NMU) induces carcinoma tumors solely in the mammary gland of female rats. Therefore, the orthotopic NMU mammary tumor is an excellent model for evaluating tracer tumor selectivity by contrasting radioactivity accumulating in mammary gland infested with carcinoma cells and healthy mammary gland. Freund Complete Adjuvant (FCA) is a well_studied inflammation agent in rats Induction of FCA inflammation in NMU-bearing rats allows for direct quantitation of tracer capability to differentiate carcinoma from inflammation.
as §1

prostate carcinoma = assay: Tumor selectivity in orthotopic model of prostate carcinoma; type: in vivo; conditions: nude mice, normalized to muscle
Description: Methods: 2×10^6 cells were injected, under anesthesia, into the prostate epithelial tissue of nude mice. When tumor reached an approximate size of 5 mm, uptake assays were performed as described above. Tumor selectivity of F-18-FBnTP and F-18-FDG was compared (3 mice in each group)

[8] = Biodistribution in mice 60 min after i.v. injection; conditions: 60 min after iv. injection
Description: Three to five mice were used for the biodistribution study of each tracer. Nonanesthetized animals were injected i.v. with tracer solution (FBnTP or FPTP, TPMP 25 μCi; MIBI 40 μCi; TPP 2 μCi, all in a volume of 0.2 mL saline) then killed by neck dislocation at 60 min after injection. The organs and tissues of interest were removed and counted by a radioactivity counter along with standards (1:1000) (LKB Wallac, 1282 Compugamma CS).

accumulation in the myocardium, time to equilibrium (myocardium [1]; dog PET, 85 min scan): reached equilibrium within a few minutes
washout from the blood pool (myocardium [1]; dog, arterial blood samples): rapid washout
myocardial uptake, Baseline (myocardium [2]; Slices 46–49, ROI1, average activity over 36 to 85 min per slice): *108.62 % of injected dose
total bone uptake [3]: minimal bone uptake
total bone uptake ([3]; listed as F-18-PhC): marginal bone uptake
stable after intravenous injection in vivo ([5]; mice, plasma radiochromatograms): more than 30 min
single radio-peak in plasma, share of total activity ([5]; mouse plasma after i.v. injection, no other peak observed): 97%
Inf/Control (FCA-induced inflammation): 0.42 ± 0.40
accumulation, Blood (FCA-induced inflammation): 0.10 ± 0.01 % ID/g tissue
accumulation, Control (healthy muscle) (FCA-induced inflammation): 0.76 ± 0.21 % ID/g tissue
accumulation, Inflammation (FCA-induced inflammation): 0.27 ± 0.22 % ID/g tissue
uptake in tumor relative to healthy gland [7]: 4 times
uptake in tumor relative to inflammation ([7]; FCA inflammation 3 days): 3 times
uptake ratio of malignant-to-normal prostate tissue (prostate carcinoma): 2.5
biodistribution, blood [8]: 0.02 ± 0.00 % ID/g
biodistribution, brain [8]: 0.07 ± 0.01 % ID/g
biodistribution, heart [8]: 35.39 ± 5.02 % ID/g
biodistribution, kidney [8]: 4.89 ± 0.88 % ID/g
biodistribution, liver [8]: 3.00 ± 1.12 % ID/g
biodistribution, lung [8]: 7.38 ± 1.55 % ID/g
biodistribution, muscle [8]: 4.31 ± 1.30 % ID/g
biodistribution, spleen [8]: 1.79 ± 0.57 % ID/g
SMILES: [18F]c1ccc(C[P+](c2ccccc2)(c2ccccc2)c2ccccc2)cc1 [Example F-18-FBnTP, F-18-fluorobenzyl triphenyl phosphonium]
Ratio P/B (myocardium [2]; Slices 36–37, ROI1): 0.62
Ratio P/B (myocardium [2]; Slices 36–37, ROI2): 0.91
Ratio P/B (myocardium [2]; Slices 36–37, ROI3): 0.85
Ratio P/B (myocardium [2]; Slices 46–49, ROI1): 0.56
Ratio P/B (myocardium [2]; Slices 46–49, ROI2): 0.76
Ratio P/B (myocardium [2]; Slices 46–49, ROI3): 0.82
decrease in uptake in the inferior wall after pacing (myocardium [2]; dog, 4-wks pacing at 210 bpm versus baseline): 40–60%
cellular uptake in the presence of varying concentrations of CCCP ([4]; CCCP 30, 60, 90, 120 μM): dose-dependent decrease
MMP-dependent share of cellular uptake ([4]; CCCP 30-120 μM): 86%
decrease in accumulation in tumor after taxeter, compared to non-treated mice [6]: ~50%
